Data from ChEMBL document CHEMBL5678796, “A highly potent and selective farnesyltransferase inhibitor ABT-100 in preclinical studies” (Anticancer Drugs, 2005).

How the values were obtained:
[1] = Inhibition of recombinant bovine FTase incubated for 30 mins in presence of [3H]FPP by SPA based Topcount scintillation plate reader analysis; parameters: species or system Bos taurus
[2] = Inhibition of recombinant human FTase incubated for 30 mins in presence of [3H]FPP by SPA based Topcount scintillation plate reader analysis
[3] = Inhibition of recombinant bovine GGTase I incubated for 30 min sin presence of [3H]FPP by SPA based Topcount scintillation plate reader analysis; parameters: species or system Bos taurus
NIH3T3 [4] = assay: Inhibition of anchorage-independent growth in H-Ras transformed mouse NIH3T3 cells assessed as inhibition of colony formation incubated for 14 days in presence of 10% bovine serum by imaging based soft agar colony formation assay; type: functional, cell-based; settings: NIH3T3, 336 h
HCT-116 [5] = assay: Inhibition of anchorage-independent growth in human HCT-116 cells assessed as inhibition of colony formation incubated for 14 days in presence of 10% FBS by imaging based soft agar colony formation assay; type: functional, cell-based; settings: HCT-116, 336 h
NIH3T3 [6] = assay: Inhibition of anchorage-independent growth in H-Ras transformed mouse NIH3T3 cells assessed as inhibition of colony formation in presence of 10% bovine serum; type: functional, cell-based
HCT-116 [7] = assay: Inhibition of anchorage-independent growth in human HCT-116 cells assessed as inhibition of colony formation in presence of 10% FBS; type: functional, cell-based
[8] = Inhibition of FTase in H-Ras transformed mouse NIH3T3 cells using Ras as substrate assessed as inhibition of substrate prenylation in presence of 10% bovine serum by immunoblot analysis; type: cell-based
[9] = Inhibition of GGTase in H-Ras transformed mouse NIH3T3 cells using Rap 1A as substrate assessed as inhibition of substrate prenylation in presence of 10% bovine serum by immunoblot analysis; type: cell-based
[10] = Inhibition of FTase in human HCT-116 cells expressing low level of P-gp1 using Ras as substrate assessed as inhibition of substrate post-translation processing in presence of 10% FBS by immunoblot analysis; type: cell-based
[11] = Inhibition of FTase in human HCT-116 cells expressing low level of P-gp1 using Ras as substrate assessed as inhibition of substrate post-translation processing in presence of 20% human serum by immunoblot analysis; type: cell-based
[12] = Inhibition of FTase in human DLD-1 cells expressing moderate level of P-gp1 using Ras as substrate assessed as inhibition of substrate post-translation processing in presence of 10% FBS by immunoblot analysis; type: cell-based
[13] = Inhibition of FTase in human DLD-1 cells expressing moderate level of P-gp1 using Ras as substrate assessed as inhibition of substrate post-translation processing in presence of 10% human serum by immunoblot analysis; type: cell-based
[14] = Inhibition of FTase in human HCT-15 cells expressing high level of P-gp1 using Ras as substrate assessed as inhibition of substrate post-translation processing in presence of 10% FBS by immunoblot analysis; type: cell-based
[15] = Inhibition of FTase in human HCT-15 cells expressing high level of P-gp1 using Ras as substrate assessed as inhibition of substrate post-translation processing in presence of 20% human serum by immunoblot analysis; type: cell-based
[16] = Ratio of EC50 for inhibition of FTase in human HCT-116 cells expressing low level of P-gp1 using Ras as substrate assessed as inhibition of substrate post-translation processing in presence of 20% human serum to EC50 for inhibition of FTase in human HCT-116 cells expressing low level of P-gp1 using Ras as substrate assessed as inhibition of substrate post-translation processing in presence of 10% …; settings: condition cancer
[17] = Ratio of EC50 for inhibition of FTase in human DLD-1 cells expressing moderate level of P-gp1 using Ras as substrate assessed as inhibition of substrate post-translation processing in presence of 20% human serum to EC50 for inhibition of FTase in human DLD-1 cells expressing moderate level of P-gp1 using Ras as substrate assessed as inhibition of substrate post-translation processing in presence …; settings: condition cancer
[18] = Ratio of EC50 for inhibition of FTase in human HCT-15 cells expressing high level of P-gp1 using Ras as substrate assessed as inhibition of substrate post-translation processing in presence of 20% human serum to EC50 for inhibition of FTase in human HCT-15 cells expressing high level of P-gp1 using Ras as substrate assessed as inhibition of substrate post-translation processing in presence of 10% …; settings: condition cancer
HCT-116 [19] = assay: Antitumor activity against human HCT-116 cells xenografted in nu/nu CD1 mouse assessed as increase in life span at 50 mg/kg, ip preinoculated with cells for 14 days followed by once every 4 days compound administration for 4 times and measured on day 40 relative to vehicle in time to 1 cm^3 tumor; type: functional; settings: HCT-116, 960 h, time 40 day
HCT-116 [20] = assay: Antitumor activity against human HCT-116 cells xenografted in nu/nu CD1 mouse assessed as tumor volume at 100 mg/kg, sc preinoculated with cells for 5 days followed by twice daily compound administration for 21 days and measured on day 22 (reference value: 1436 +/- 263 mm^3); type: functional; settings: time 22 day
HCT-116 [21] = assay: Antitumor activity against human HCT-116 cells xenografted in nu/nu CD1 mouse assessed as reduction in tumor volume by measuring test to control ratio at 100 mg/kg, sc preinoculated with cells for 5 days followed by twice daily compound administration for 21 days and measured on day 22; type: functional; settings: time 22 day
HCT-116 [22] = assay: Antitumor activity against human HCT-116 cells xenografted in nu/nu CD1 mouse assessed as increase in life span at 100 mg/kg, sc preinoculated with cells for 5 days followed by twice daily compound administration for 21 days and measured on day 22 relative to vehicle in time to 1 cm3 tumor; type: functional; settings: HCT-116, 528 h, time 22 day
[23] = Inhibition of FTase (unknown origin); parameters: species or system Homo sapiens
HCT-116 [24] = assay: Antitumor activity against human HCT-116 cells xenografted in nu/nu CD1 mouse assessed as tumor volume at 30 mg/kg, ip preinoculated with cells for 5 days followed by once every 3 days compound administration for 4 times and measured on day 22 (reference value: 1861 +/- 410 mm^3); type: functional; settings: time 22 day
HCT-116 [25] = assay: Antitumor activity against human HCT-116 cells xenografted in nu/nu CD1 mouse assessed as reduction in tumor volume by measuring test to control ratio at 30 mg/kg, ip preinoculated with cells for 5 days followed by once every 3 days compound administration for 4 times and measured on day 22; type: functional; settings: time 22 day
HCT-116 [26] = assay: Antitumor activity against human HCT-116 cells xenografted in nu/nu CD1 mouse assessed as increase in life span at 30 mg/kg, ip preinoculated with cells for 5 days followed by once every 3 days compound administration for 4 times and measured on day 22 relative to vehicle in time to 1 cm3 tumor; type: functional; settings: HCT-116, 528 h, time 22 day

In the case of `NC(=O)N1CCC(CC(=O)N2CCC([C@H]3c4ncc(Br)cc4CCc4cc(Cl)cc(Br)c43)CC2)CC1` [LONAFARNIB], the IC50 [1] is reported as 7.8 nM, the IC50 [2] is reported as 4.9 nM and the IC50 [3] is reported as greater than 10000 nM. The EC50 (NIH3T3 [4]) was 56 nM, the EC50 (HCT-116 [5]) was 94 nM and the EC50 (NIH3T3 [6]) was 50 nM. For the same compound, the EC50 (HCT-116 [7]) was 74 nM, the EC50 [8] was 160 nM and the EC50 [9] was greater than 30000 nM. The EC50 [10] was 16 nM, the EC50 [11] was 49 nM and the EC50 [12] was 12 nM. The EC50 [13] was 23 nM, the EC50 [14] was 37 nM and the EC50 [15] was 210 nM. The “Ratio EC50” value [16] was 1.9, the “Ratio EC50” value [17] was 1.9 and the “Ratio EC50” value [18] was 1.9.

Compound `CCc1c2c(nc3ccc(OC(=O)N4CCC(N5CCCCC5)CC4)cc13)-c1cc3c(c(=O)n1C2)COC(=O)[C@]3(O)CC` [IRINOTECAN] has an ILS at 50 mg/kg (HCT-116 [19]) of 200%.

For `Cn1cncc1[C@@](N)(c1ccc(Cl)cc1)c1ccc2c(c1)c(-c1cccc(Cl)c1)cc(=O)n2C` [TIPIFARNIB], the IC50 [1] was 57 nM, the IC50 [2] was 0.45 nM and the IC50 [3] was 1040 nM. The EC50 (NIH3T3 [4]) was 3.7 nM, the EC50 (HCT-116 [5]) was 24 nM and the Activity (HCT-116 [20]) was 820 mm3. For the same compound, the T/C (HCT-116 [21]) was 56%, the ILS at 100 mg/kg (HCT-116 [22]) was 39% and the EC50 [8] was 2.3 nM. For the same compound, the EC50 [9] was greater than 30000 nM, the EC50 [10] was 0.98 nM and the EC50 [11] was 6.7 nM. For the same compound, the EC50 [12] was 0.69 nM, the EC50 [13] was 3.1 nM and the EC50 [14] was 0.55 nM. For the same compound, the EC50 [15] was 4.9 nM, the “Ratio EC50” value [16] was 4.4 and the “Ratio EC50” value [17] was 4.4. The “Ratio EC50” value [18] was 4.4.

For `Cn1cncc1C(O)(COc1ccc(C#N)cc1-c1ccc(OC(F)(F)F)cc1)c1ccc(C#N)cc1` (stereo not drawn), the EC50 [8] was 2 nM and the EC50 [23] was 0.6 nM.

`Nc1ccn([C@@H]2O[C@H](CO)[C@@H](O)C2(F)F)c(=O)n1` [GEMCITABINE] gave an Activity (HCT-116 [24]) of 359 mm3, a T/C (HCT-116 [25]) of 22% and an ILS at 30 mg/kg (HCT-116 [26]) of 112%.
